{"source": "patent US7119189B2", "about": "“Metabotropic GABA [B] receptors, receptor-specific ligands and their uses” (Novartis AG, priority 1997, dated 2006)", "key": {"[1]": {"test_system": "native GABAB receptors (130K and 100K proteins)", "conditions": "for competition with / displacement of [125I]CGP71872 at native receptors: FIG. 4b; for [125I]CGP71872 labelling in the presence of excess unlabelled antagonist: 1 μM (10^−6 M) competitor", "quoted_text": "The incubation is terminated by centrifugation at 20 000×g for 10 min at 4° C. This step removed free unbound photoaffinity label. […] The suspension is centrifuged at 20 000×g for 10 min and resuspended at a concentration of 8 mg/ml protein in buffer. […] The labelled membranes could be stored at −80° C."}, "[2]": {"target": "GABAB receptors in membranes from rat cerebral cortex (Rattus norvegicus, UniProt Q9Z0U4)", "sequence (Q9Z0U4 164-960 limits assumed)": "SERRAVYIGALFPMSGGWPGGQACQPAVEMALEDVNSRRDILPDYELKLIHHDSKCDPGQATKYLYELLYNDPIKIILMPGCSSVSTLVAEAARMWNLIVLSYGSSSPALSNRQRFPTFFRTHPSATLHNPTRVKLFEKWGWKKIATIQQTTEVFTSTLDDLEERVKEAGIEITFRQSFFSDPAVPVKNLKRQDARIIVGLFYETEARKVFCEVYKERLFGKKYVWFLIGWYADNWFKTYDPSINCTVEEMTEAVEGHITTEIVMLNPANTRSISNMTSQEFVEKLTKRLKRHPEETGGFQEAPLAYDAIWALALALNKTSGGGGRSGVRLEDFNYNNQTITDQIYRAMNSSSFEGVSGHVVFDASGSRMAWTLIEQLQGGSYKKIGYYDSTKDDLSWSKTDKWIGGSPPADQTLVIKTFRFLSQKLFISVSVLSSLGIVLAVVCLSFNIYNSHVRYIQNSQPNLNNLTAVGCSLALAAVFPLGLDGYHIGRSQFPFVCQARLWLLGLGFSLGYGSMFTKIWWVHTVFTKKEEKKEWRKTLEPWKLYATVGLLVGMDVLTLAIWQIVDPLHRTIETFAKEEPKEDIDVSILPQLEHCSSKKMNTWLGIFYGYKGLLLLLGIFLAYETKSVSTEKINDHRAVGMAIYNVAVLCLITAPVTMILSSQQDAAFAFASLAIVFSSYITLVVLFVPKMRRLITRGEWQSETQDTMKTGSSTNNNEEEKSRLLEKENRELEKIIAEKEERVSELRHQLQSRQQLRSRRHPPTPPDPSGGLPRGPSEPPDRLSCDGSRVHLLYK", "sequence (O88871 41-940, further chain)": "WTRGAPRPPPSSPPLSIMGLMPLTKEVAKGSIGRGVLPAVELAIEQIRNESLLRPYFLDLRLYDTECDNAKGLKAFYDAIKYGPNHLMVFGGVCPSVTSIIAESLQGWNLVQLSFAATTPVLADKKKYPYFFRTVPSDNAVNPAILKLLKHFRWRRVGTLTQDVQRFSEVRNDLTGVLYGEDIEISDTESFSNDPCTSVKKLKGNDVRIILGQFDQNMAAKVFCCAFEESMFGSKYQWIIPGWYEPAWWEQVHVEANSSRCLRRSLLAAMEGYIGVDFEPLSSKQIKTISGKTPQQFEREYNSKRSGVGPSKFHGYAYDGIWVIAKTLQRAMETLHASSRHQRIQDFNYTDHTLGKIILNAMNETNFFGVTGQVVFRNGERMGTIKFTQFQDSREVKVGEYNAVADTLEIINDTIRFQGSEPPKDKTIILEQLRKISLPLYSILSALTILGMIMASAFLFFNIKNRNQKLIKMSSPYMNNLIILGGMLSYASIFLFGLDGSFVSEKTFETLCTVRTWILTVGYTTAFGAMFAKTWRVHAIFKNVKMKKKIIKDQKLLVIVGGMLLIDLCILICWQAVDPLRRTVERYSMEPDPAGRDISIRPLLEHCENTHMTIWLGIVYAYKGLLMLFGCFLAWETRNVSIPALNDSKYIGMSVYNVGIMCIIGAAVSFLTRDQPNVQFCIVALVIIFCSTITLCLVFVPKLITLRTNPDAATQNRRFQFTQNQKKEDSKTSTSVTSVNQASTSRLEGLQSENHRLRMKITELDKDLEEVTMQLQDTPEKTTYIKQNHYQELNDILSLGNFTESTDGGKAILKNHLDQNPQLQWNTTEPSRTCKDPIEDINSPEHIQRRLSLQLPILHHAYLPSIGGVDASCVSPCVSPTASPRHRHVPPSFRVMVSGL", "assay": "biochemical", "type": "binding"}, "[3]": {"target": "T1, recombinant GABABR1a receptors in membranes from COS 1 cells (Rattus norvegicus, UniProt Q9Z0U4)", "T1 construct": "The protein expressed from the 4,376 bp cDNA clone has an apparent molecular mass of about 120 kDa; expressed in transfected cells; host or cells: COS1 cells, transient transfection with the cDNA clone in pcDNAI", "T1 sequence (Q9Z0U4 20-960)": "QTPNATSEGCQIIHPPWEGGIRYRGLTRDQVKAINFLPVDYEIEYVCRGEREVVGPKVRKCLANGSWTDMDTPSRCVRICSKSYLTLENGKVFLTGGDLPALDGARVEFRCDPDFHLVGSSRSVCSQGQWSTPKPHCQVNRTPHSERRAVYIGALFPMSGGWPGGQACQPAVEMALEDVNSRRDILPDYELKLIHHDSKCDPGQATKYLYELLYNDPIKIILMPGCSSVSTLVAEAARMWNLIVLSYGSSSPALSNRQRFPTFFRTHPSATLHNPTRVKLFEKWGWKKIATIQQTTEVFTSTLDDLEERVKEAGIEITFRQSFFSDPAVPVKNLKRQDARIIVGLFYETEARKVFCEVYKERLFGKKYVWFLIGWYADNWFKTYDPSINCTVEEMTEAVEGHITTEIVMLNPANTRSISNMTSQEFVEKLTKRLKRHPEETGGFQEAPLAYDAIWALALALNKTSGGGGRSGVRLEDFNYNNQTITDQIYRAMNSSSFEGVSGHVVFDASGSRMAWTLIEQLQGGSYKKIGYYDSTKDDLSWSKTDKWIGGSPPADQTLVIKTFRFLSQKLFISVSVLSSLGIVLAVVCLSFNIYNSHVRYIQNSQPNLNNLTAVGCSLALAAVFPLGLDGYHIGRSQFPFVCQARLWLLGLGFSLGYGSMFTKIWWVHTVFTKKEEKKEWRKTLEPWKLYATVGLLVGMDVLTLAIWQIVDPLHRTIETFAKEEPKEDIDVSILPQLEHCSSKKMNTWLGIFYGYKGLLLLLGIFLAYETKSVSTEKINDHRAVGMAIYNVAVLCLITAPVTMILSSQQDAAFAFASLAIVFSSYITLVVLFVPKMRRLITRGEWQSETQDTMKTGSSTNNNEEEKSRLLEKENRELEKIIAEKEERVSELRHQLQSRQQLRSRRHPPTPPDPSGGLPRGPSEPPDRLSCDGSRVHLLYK", "assay": "biochemical", "type": "binding"}, "GABABR1a": {"target": "T2, GABABR1a (Rattus norvegicus, UniProt Q9Z0U4)", "T2 construct": "The ability of GABABR1a stably expressed in HEK293 cells to reduce forskolin-stimulated cAMP accumulation is analysed; expressed in transfected cells", "T2 sequence (Q9Z0U4 20-960)": "as above", "assay": "Forskolin-stimulated cAMP accumulation in HEK293 cells stably expressing GABABR1a", "type": "cell-based", "protocol": "HEK293 cells stably expressing GABABR1a are treated with 20 μM forskolin (Fsk) to stimulate cAMP formation (100%). […] Bars represent mean values+S.E.M. of at least three independent experiments performed in quadruplicate.\nGABAB receptors are described to inhibit adenylate cyclase activity, stimulate phospholipase A2, activate K^+-channels, inactivate voltage-dependent Ca^2+-channels and to modulate inositol phospholipid hydrolysis. As GABABR1a and -b have identical sequence in all domains predicted to be intracellular they are expected to be able to couple to the same effector systems. […] The ability of GABABR1a stably expressed in HEK293 cells to reduce forskolin-stimulated cAMP accumulation is analysed (FIG. 5). We chose concentrations of forskolin and L-baclofen that should produce a maximal effect."}, "[4]": {"test_system": "GABAA, benzodiazepine, kainate, AMPA, NMDA receptors, strychnine independent binding site at NMDA receptors, muscarinic cholinergic, α1- and α2-adrenergic …", "assay": "Receptor selectivity assays at 1 μM", "conditions": "concentration of 1 μM", "protocol": "[…]. The incubation is terminated by filtration through GF/B Whatman glass fibre filters. […]. The compound is therefore selective for GABAB receptors. […]."}, "[5]": {"test_system": "non-transfected HEK293 cells", "assay": "Forskolin-stimulated cAMP formation in untransfected HEK293 cells (control)", "type": "cell-based"}}, "note": "“Also recorded” adds a separate entry of the source. Like-named read-outs stand apart in the source and are kept apart here."}
{"compound": "NCCC[PH](=O)O", "note": "[CGP 27492 (APPA), 3-aminopropyl-phosphinic acid]", "values": [{"measurement": "competition with / displacement of [125I]CGP71872 at native receptors", "setting": "[1]", "value": "compete"}]}
{"compound": "CCOC(OCC)P(=O)(O)CCCN", "note": "[CGP 35348]", "values": [{"measurement": "IC50", "setting": "[2]", "value": 9.3, "unit": "µM"}, {"measurement": "IC50", "setting": "[3]", "value": 20, "unit": "µM"}, {"measurement": "competition with / displacement of [125I]CGP71872 at native receptors", "setting": "[1]", "value": "effective displacers"}]}
{"compound": "C[C@H](NC[C@H](O)CP(=O)(O)CC1CCCCC1)c1ccc(Cl)c(Cl)c1", "note": "[CGP 54626A]", "values": [{"measurement": "IC50", "setting": "[3]; recombinant GABABR1a expressed in COS1 cells, read-out: Inhibition of [125I]CGP 64213 binding, COS1 cells IC50", "value": 0.0016, "unit": "µM"}, {"measurement": "[125I]CGP71872 labelling in the presence of excess unlabelled antagonist", "setting": "[1]", "value": "no radioactivity is bound to the membranes"}, {"measurement": "[125I]CGP71872 labelling in the presence of excess unlabelled antagonist", "setting": "[1]; listed as CGP54626A", "value": "inhibited"}, {"measurement": "competition with / displacement of [125I]CGP71872 at native receptors", "setting": "[1]", "value": "effective displacers"}, {"measurement": "effect on the L-baclofen inhibition of cAMP accumulation", "setting": "GABABR1a; 10 μM CGP54626A (FIG. 5), 300 μM L-baclofen", "value": "antagonised"}]}
{"compound": "C[C@@H](NC[C@H](O)CP(=O)(O)CCCCCNC(=O)CCc1ccc(O)c(I)c1)c1cccc(C(=O)O)c1", "note": "[CGP 64213]", "values": [{"measurement": "activity in other receptor assays", "setting": "[4]", "value": "inactive"}]}
{"compound": "NC[C@H](CC(=O)O)c1ccc(Cl)cc1", "note": "[L-baclofen]", "values": [{"measurement": "inhibition of forskolin-stimulated cAMP formation in untransfected cells", "setting": "[5]", "value": "does not inhibit; also recorded: No L-baclofen response"}]}
{"compound": "pertussis toxin", "values": [{"measurement": "effect of preincubation on the L-baclofen response / modulation of adenylate cyclase", "setting": "GABABR1a; 10 ng/ml for 15–20 h", "value": "sensitive; also recorded: completely abolishes the effect of L-baclofen"}]}
